A value given as a limit tells only on which side of the number the result lay.

The test system of experiment [1] is Hela, OVCAR-3, HaCaT, HFB and NIH3T3 cells. Put plainly: Survival rate of cells after freeze-preservation at high sugar concentration, trypan blue (Example 2). Format: cell-based, human, mouse. How it is done:
(§1) 1. Cells used: Hela (human cervical cancer), OVCAR-3 (human ovarian cancer), HaCaT (human skin keratinocyte), HFB (human fibroblast) and NIH3T3 (mouse fibroblast). Saccharides D-allose and the like were added to culture medium, Cell Banker (commercially available preservative solution) and DMSO at concentrations of 0.2, 0.4, 0.6, 0.8 and 1M. Monosaccharides such as D-glucose, D-fructose, D-mannose and D-galactose which are present in nature in large quantities and D-allose, D-altrose, D-psicose, L-psicose, D-sorbose, L-sorbose, D-tagatose, L-tagatose and L-fructose as rare sugars were used. Further, trehalose as disaccharide was used. The cells frozen with D-allose were freeze-preserved at −80° C. and in liquid nitrogen for 24 hours, 1 week and 4 weeks. 1) Survival rate of cells: The cells were thawed, and the survival rate was estimated by a trypan blue dying method.

Experiment [2] has as its system OVCAR-3, HaCaT and HDF cells. Put plainly: Cell survival rate with D-allose combined with DMSO at low concentration (Example 2). The class given is cell-based, human. The settings on record: 1 or 2% of DMSO with addition of D-allose (FIG. 9). How it is done:
as §1, with “method. 6) The effect of cell preservation under sub-optimal conditions by reducing the concentration of DMSO to 1, 2 or 3% was comparatively examined. OVCAR-3, HaCaT and HDF cells were used as cells. Regarding the preservation effect with DMSO, it was confirmed that the survival rate was approximately 70% or more with the use of 1 or 2% of DMSO by addition of D-allose (FIG. 9).” for “method.”

Another experiment deals with EGF mRNA. In words: Kidney preservation in UW solution at 4° C., EGF mRNA by northern blot. The arrangement: species or system rat. The settings on record: D-allose 5 mg/ml in UW solution, in 48 hours and 78 hours (FIG. 11). As to the method:
Object: male rats, 200 g to 280 g Preparations of experiment: A rat is fasted 12 hours before the experiment. After the rat is anesthetized by intraperitoneal administration of nenbutal, the stomach is shaved with an electric razor, cleaned with ether, and cut open. The abdominal aorta upper the renal artery is clamped. The UW solution is adapted to be perfused from the abdominal aorta under the renal artery. Grouping: Control group: UW solution only, D-allose group: D-allose is added to the UW solution at a concentration of 5 mg/ml. Experimental method: In the control group and the D-allose group, the kidney is withdrawn after perfusion of the UW solution in each group, put in the UW solution of each of the control group and the D-allose group, […] Estimation: Expression of detrimental factor ICAM-1 and regeneration factor EGF in mRNA was examined by northern blot.

The next experiment concerns CINC-1. In words: Renal ischemic reperfusion model, CINC-1 protein amount. The settings on record: 400 mg/kg intravenously 30 minutes before renal ischemia, 45 minutes clamp (FIG. 12). The class given is in vivo, rat. As to the method:
(§2) Object: male rats with a body weight of 200˜250 g Experimental method: After anesthetization of a rat with nenbutal, a renal ischemic model is prepared. Renal ischemic model: After extraction of the right kidney, the left kidney blood vessel is clamped for 45 minutes. 400 mg/kg of the solution is intravenously administered to the D-allose group 30 minutes before the renal ischemia. A raw feed is administered to the control group. Estimation: Change with time of a CINC-1 protein amount and MPO as an index of accumulation of leukocytes after ischemic reperfusion

A further experiment has as its system MPO. Put plainly: Renal ischemic reperfusion model, MPO as index of accumulation of leukocytes. The class given is in vivo, rat. The settings on record: 400 mg/kg intravenously 30 minutes before renal ischemia; peak after 6 hours of reperfusion (FIG. 13). How it is done:
as §2

For the next experiment, the system named is human sperms. In words: Survival rate of frozen and thawed sperms, 0.5% Eosin Y dying. Format: cell-based. The settings on record: freeze-preservative solution using D-allose, liquid nitrogen 1 month (FIG. 17). As to the method: Semens of ten healthy men who were 24 to 44 years old (mean: 29.9) with normal semens were used.
The semen was manually collected after abstinence for 3 to 5 days, liquefied at room temperature, and then washed and concentrated by a 80% Percoll liquid agitation density gradient method. The resulting sperm turbid solution (0.2 ml) and the freeze-preservative solution were mixed in equal amounts, and the mixture was charged into a freezing tube (serum tube, Sumitomo Bakelite), frozen by a liquid nitrogen vapor freezing method, and then preserved in a liquid nitrogen tank. The freeze-preservative solution (refer to FIG. 14) was used such that the mixing amounts of D-allose and D-glucose were changed (A group=1:0, B group=3:1, C group=1:1, D group=1:3, E group=0:1) without changing the number of moles of the sugar in a KS-II sperm preservative solution. One month later, the frozen sperms were thawed in warm water (30° C.) with shaking. Further, for removal of the freeze-preservative solution and reconcentration, the density gradient centrifugation method was conducted, and the resulting sperm floating solution was examined.
As the examination method, the sperm movement rate was measured by a visual observation method with Makler Counting Chamber and C-IMAGING SYSTEMS, and the survival rate was measured by 0.5% Eosin Y dying. […]

For experiment [3] the following is noted: Murata et al., J. Bioengineering and Bioscience, 2003; cited from earlier work.
The subject of another experiment is rat kidney. The settings on record: pre-administration, cited from earlier work.

As to `O=C[C@H](O)[C@H](O)[C@H](O)[C@H](O)CO` [D-allose], in experiment [1] (0, 0.2, 0.4, 0.6, 0.8 and 1M, comparison under way, tendency), the “cell survival rate after thawing in comparison with other rare sugars” value is “the highest”. In addition, the “survival rate of cells” value in experiment [1] (D-allose added to 10% DMSO and Cell Banker, compared with DMSO and Cell Banker) is “the higher the concentration of D-allose, the lower the survival rate of cells”. Besides, the optimum preservation temperature in experiment [1] (D-allose-containing freeze-preservative agent) was −80 °C. Also, the “survival rate of cells with extended time of freeze-preservation” value in experiment [1] (freeze-preservation extended by one month) is on record as “not changed so much”. Moreover, the “number of cells survived (trypan blue dying)” value in experiment [1] (sugar-containing medium in comparison with medium alone (FIG. 7)) is “large”. Also, the “survival rate by temperature of freeze-preservation” value in experiment [1] (−80° C. versus liquid nitrogen) was “much higher”. Further, in experiment [2], the survival rate is reported as at least 70%. Further, the “expression of EGF mRNA during kidney preservation” value with EGF mRNA was “still maintained”. In addition, the “CINC-1 protein amount after ischemic reperfusion” value in the experiment on CINC-1 is recorded as “significantly decreased”. Also, the “MPO as the index of accumulation of leukocytes” value in the experiment with MPO was “inhibited”. Further, in the experiment on human sperms, the “survival rate of thawed sperms” value is “did not show a clear effect”. In experiment [3], the antioxidation activity entry is reported as “proved to have the antioxidation activity”. Further, the “activation and floating of neutrophils after ischemic reperfusion” value in the experiment on rat kidney (rat kidney (WO 03/097820)) is “inhibits”. In addition, in the experiment with rat kidney (rat kidney ischemic reperfusion (WO 03/097820)), the “functional disorder of the kidney” value is given as “decreases”.

The values are drawn from patent publication US9237744B2, “Preservative solution for cells, tissues and organs containing rare sugar and preservative method thereof” (NATIONAL UNIVERSITY CORPORATION KAGAWA UNIVERSITY, priority 2004, dated 2016).
